Results on seven cell lines are retold here after the supplement of paper PMC10307832.

Assay in all cases: relative viability (nuclei count vs DMSO), 5 days (fraction); higher = more cells survive
Compound in experiment [1]: CCC1=CN=CN=C1N2CCN(CC2)CC3=NC4=C(N3)C=C(C=C4)C(F)(F)F
Summed up: (§1)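 Five library-drug doses spaced by √10 were pinned onto vehicle-anchored 1536-well plates of lung cancer cell lines that had been kept overnight at 37 °C. Cells went 5 days without medium change, then were fixed, permeabilised and Hoechst-stained together, imaged at 4× and counted by MetaXpress. Viability is the ratio of treated-well to vehicle-well nuclei, taken as a median over plates. Plates required control CV below 25% and at least one doubling.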

Compound in experiment [2]: CCn1c(-c2nonc2N)nc2cnc(Oc3cccc(NC(=O)c4ccc(OCCN5CCOCC5)cc4)c3)cc21
Summed up: as §1

Compound in the next experiment: N=C1NC(=O)/C(=C/c2ccc(O)cc2)S1 [Mirin]
Summed up: as §1

Compound in experiment [3]: CCn1c(-c2nonc2N)nc2cnc(Oc3cccc(NC(=O)c4ccc(OCCN5CCOCC5)cc4)c3)cc21 + Cc1nc(Nc2ncc(C(=O)Nc3c(C)cccc3Cl)s2)cc(N2CCN(CCO)CC2)n1 [Dasatinib] (partner 0.075 µM)
The method in brief:
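Cells from lung cancer lines were seeded into 1536-well plates and, one day later, dosed by pin tool. Treatments were either a single drug or a fixed dose of an anchor drug with five library-drug doses (not always all listed) in √10 steps. After 5 days, nuclei were stained in a one-step fixation (final 0.05% Triton X-100, 1% formaldehyde, 1 ug/ml Hoechst) and counted on 4× images, and relative viability is the treated-to-vehicle nuclei ratio, as the median of duplicate plates.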

As for NCI-H1755, the relative viability in experiment [1] (0.04 µM) is 1.05; in experiment [1] (0.1265 µM), 0.937; in experiment [1] (0.4 µM), 0.978; in experiment [1] (1.265 µM), 0.872; in experiment [1] (4 µM), 1; in experiment [2] (0.04 µM), 1.02. For the same cell line, the relative viability in experiment [2] (0.1265 µM) came out at 0.913; in experiment [2] (0.4 µM) it was 0.71; in experiment [2] (1.265 µM), 0.627; in experiment [2] (4 µM) it was 0.577; with Mirin (0.25 µM) it was 1.03; in the experiment with Mirin (0.7906 µM), 1.01. The relative viability was found to be 1.01 in the experiment with Mirin (2.5 µM); 1.02 in the experiment with Mirin (7.906 µM); 1.13 with Mirin (25 µM); 0.373 in experiment [3] (first compound 0.04 µM); 0.257 in experiment [3] (first compound 0.1265 µM); 0.15 in experiment [3] (first compound 0.4 µM). Also, the relative viability in experiment [3] (first compound 1.265 µM) amounted to 0.206; in experiment [3] (first compound 4 µM), 0.186.

For NCI-H1792, the relative viability in experiment [1] (0.04 µM) came to 0.79; in experiment [1] (0.1265 µM) it was 0.749; in experiment [1] (0.4 µM), 0.814; in experiment [1] (4 µM), 0.96; in experiment [2] (0.04 µM), 1.05; in experiment [2] (0.1265 µM), 0.773. In addition, the relative viability in experiment [2] (0.4 µM) came out at 0.343; in experiment [2] (1.265 µM), 0.458; in experiment [2] (4 µM), 0.599; with Mirin (0.25 µM) it was 0.775; in the experiment with Mirin (0.7906 µM), 0.925; with Mirin (2.5 µM) it was 0.859. For the same cell line, the relative viability with Mirin (7.906 µM) worked out at 0.711; with Mirin (25 µM) it was 1.06; in experiment [3] (first compound 0.04 µM) it was 0.954; in experiment [3] (first compound 0.1265 µM), 0.514; in experiment [3] (first compound 1.265 µM), 0.405; in experiment [3] (first compound 4 µM), 0.488.

As to NCI-H1793, the relative viability in experiment [1] (0.04 µM) stood at 0.894; in experiment [1] (0.1265 µM) it was 0.796; in experiment [1] (0.4 µM), 0.702; in experiment [1] (4 µM), 0.796; in experiment [2] (0.04 µM), 0.897; in experiment [2] (0.1265 µM), 0.838. For the same cell line, the relative viability came to 0.526 in experiment [2] (0.4 µM); 0.587 in experiment [2] (1.265 µM); 0.483 in experiment [2] (4 µM); 1.1 with Mirin (0.25 µM); 0.987 with Mirin (2.5 µM); 0.914 with Mirin (7.906 µM). The relative viability in the experiment with Mirin (25 µM) worked out at 0.826; in experiment [3] (first compound 0.04 µM) it was 0.385; in experiment [3] (first compound 0.1265 µM), 0.284; in experiment [3] (first compound 0.4 µM), 0.208; in experiment [3] (first compound 1.265 µM) it was 0.183; in experiment [3] (first compound 4 µM) it was 0.194.

NCI-H1915: the relative viability in experiment [1] (0.04 µM) is 0.992; in experiment [1] (0.1265 µM) it was 0.976; in experiment [1] (0.4 µM), 0.926; in experiment [1] (1.265 µM) it was 0.809; in experiment [1] (4 µM), 1.05; in experiment [2] (0.04 µM), 1.11. Further, the relative viability amounted to 1.01 in experiment [2] (0.1265 µM); 0.811 in experiment [2] (0.4 µM); 0.331 in experiment [2] (1.265 µM); 0.404 in experiment [2] (4 µM); 1 with Mirin (0.25 µM); 0.984 in the experiment with Mirin (2.5 µM). Besides, the relative viability with Mirin (7.906 µM) worked out at 0.951; in the experiment with Mirin (25 µM), 1.03; in experiment [3] (first compound 0.04 µM), 0.33; in experiment [3] (first compound 0.1265 µM) it was 0.3; in experiment [3] (first compound 0.4 µM), 0.236; in experiment [3] (first compound 1.265 µM), 0.186. Further, the relative viability in experiment [3] (first compound 4 µM) amounted to 0.188.

Turning to NCI-H1944, the relative viability in experiment [1] (0.04 µM) was determined as 1.11; in experiment [1] (0.1265 µM) it was 0.929; in experiment [1] (0.4 µM), 0.847; in experiment [1] (1.265 µM) it was 0.652; in experiment [1] (4 µM) it was 0.852; in experiment [2] (0.04 µM) it was 0.977. In addition, the relative viability came out at 0.946 in experiment [2] (0.1265 µM); 0.577 in experiment [2] (0.4 µM); 0.576 in experiment [2] (1.265 µM); 0.336 in experiment [2] (4 µM); 0.979 in the experiment with Mirin (0.25 µM); 0.952 with Mirin (0.7906 µM). The relative viability was found to be 0.971 with Mirin (2.5 µM); 0.898 in the experiment with Mirin (7.906 µM); 0.625 in the experiment with Mirin (25 µM); 0.192 in experiment [3] (first compound 0.04 µM); 0.154 in experiment [3] (first compound 0.1265 µM); 0.138 in experiment [3] (first compound 0.4 µM). The relative viability in experiment [3] (first compound 1.265 µM) was 0.157; in experiment [3] (first compound 4 µM), 0.139.

On to NCI-H1975, for which the relative viability was found to be 1.04 in experiment [1] (0.04 µM); 0.951 in experiment [1] (0.1265 µM); 0.931 in experiment [1] (0.4 µM); 0.844 in experiment [1] (1.265 µM); 0.942 in experiment [1] (4 µM); 0.824 in experiment [2] (0.04 µM). For the same cell line, the relative viability in experiment [2] (0.1265 µM) was 0.636; in experiment [2] (0.4 µM) it was 0.49; in experiment [2] (1.265 µM), 0.427; in experiment [2] (4 µM) it was 0.304; with Mirin (0.25 µM) it was 1.07; in the experiment with Mirin (0.7906 µM) it was 1.03. Further, the relative viability is 0.94 in the experiment with Mirin (2.5 µM); 1.01 with Mirin (7.906 µM); 0.979 in the experiment with Mirin (25 µM); 0.309 in experiment [3] (first compound 0.04 µM); 0.268 in experiment [3] (first compound 0.1265 µM); 0.186 in experiment [3] (first compound 0.4 µM). In addition, the relative viability in experiment [3] (first compound 1.265 µM) is 0.18; in experiment [3] (first compound 4 µM), 0.142.

As to NCI-H1993, the relative viability amounted to 0.968 in experiment [1] (0.04 µM); 0.921 in experiment [1] (0.1265 µM); 0.809 in experiment [1] (0.4 µM); 0.916 in experiment [1] (1.265 µM); 0.945 in experiment [1] (4 µM); 0.985 in experiment [2] (0.04 µM). Further, the relative viability in experiment [2] (0.1265 µM) stood at 0.878; in experiment [2] (0.4 µM), 0.603; in experiment [2] (1.265 µM) it was 0.793; in experiment [2] (4 µM), 0.82; with Mirin (0.25 µM) it was 0.914; with Mirin (0.7906 µM) it was 0.75. The relative viability turned out to be 1.08 in the experiment with Mirin (2.5 µM); 0.941 with Mirin (7.906 µM); 0.879 in the experiment with Mirin (25 µM); 0.596 in experiment [3] (first compound 0.04 µM); 0.572 in experiment [3] (first compound 0.1265 µM); 0.5 in experiment [3] (first compound 0.4 µM). Further, the relative viability worked out at 0.552 in experiment [3] (first compound 1.265 µM) and 0.569 in experiment [3] (first compound 4 µM).
